{"source": "patent US20100120711A1", "about": "“AMPK POTENTIATOR CONTAINING CHITO-OLIGOSACCHARIDE” (AMOREPACIFIC CORPORATION, priority 2006, published 2010)", "assay_type_in_all_cases": "cell-based", "key": {"AMPK": {"tested_on": "AMPK", "assay": "AMPK activation: western blot of AMPK and p-AMPK protein expression in liver cells", "conditions": "HepG2 liver cells; AICAR 1 mM; chito-oligosaccharide 100, 500 ppm; western blot optical density", "method": "(§1) Chito-oligosaccharides with a molecular weight of 2,000 and 9,000 (100, 500 ppm) and liver cells (HepG2) treated by AICAR (1 mM) were added to a lysis buffer (50 mM Tris-HCl, pH 7.4, 150 mM NaCl, 0.1% SDS, 1.0% Triton X-100. 0.25% Deoxycholate, 1 mM EDTA, 1 mM PMSF) to disrupt the cells. The homogenate was centrifuged at 12,000 rpm for 15 minutes and a layer of protein was obtained. The degree of expression of ACC and p-ACC proteins was determined by a western blotting. 50 μg of protein was loaded on SDS-polyacrylamide gel, electrophoresis was carried out, and the gel was transferred to a nitrocellulose membrane. The membrane was reacted with blocking solution (5% skim milk, 10 mM Tris, pH7.5, 10 mM NaCl, 0.1% Tween 20) for 1 hour to remove nonspecific bindings, the primary antibodies to AMPK and p-AMPK proteins were added and it was maintained overnight at 4° C. Thereafter, it was washed with a blocking solution for 10 minutes three times, the secondary antibodies were added thereto, and they were reacted for 1 hour and washed as described above. After adding ECL solution, the membrane was exposed to X-ray film and the amount of protein was measured. The change in the amount of protein was calculated by an optical density with an image analyzer."}, "ACC": {"tested_on": "ACC", "assay": "ACC activation: western blot of ACC and p-ACC protein expression in liver cells", "conditions": "HepG2 liver cells", "method": "as §1\nThe expressions of ACC and p-ACC proteins were measured by a Western blotting as described above."}, "liver cells (HepG2) [1]": {"tested_on": "liver cells (HepG2)", "assay": "Fatty acid oxidation in liver cells ([1-14C]-palmitate)", "conditions": "6 hours culture, positive control", "method": "To determine the degree of fatty acid oxidation in liver cells, HepG2 cells were seeded on a 96-well plate. After stabilizing the seeded plate, AICAR and chito-oligosaccharide were added in a concentration of 100 and 500 ppm. After culturing for 6 hours, to the cells was added […] of assay buffer (20 mM HEPES, 25 mM NaHCO3, 1.2 mM KH2PO4, 3 mM glucose, 114 mM NaCl, 4.7 mM KCl, 1.2 mM MgSO4, 2.5 mM CaCl2, 1% ultra fatty acid-free BSA) and they are reacted for 30 minutes. Then, [1-^14C]-palmitate (3.4 μCi; 1.0 μCi/μmole) was incorporated thereto and labeling was carried out for 2 hours. 5% perchloric acid was added to stop the reaction and the amount of radiation was measured."}, "liver cells (HepG2) [2]": {"tested_on": "liver cells (HepG2)", "assay": "Production of ATP in liver cells (ATP assay kit, luminescence)", "conditions": "5 to 500 ppm, 24 hours culture", "method": "The production of ATP according to AMPK activation was measured by ATP assay kit. HepG2 cells were seeded on a 96-well plate and the seeded plate was stabilized and, thereafter, AICAR and chito-oligosaccharide were added in a concentration of 5 to 500 ppm. After culturing for 24 hours, the reagent prepared by mixing a substrate and a buffer was added to each well and they were reacted for 30 minutes at a room temperature. Cells were disrupted by mixing them in an orbital shaker and, after stabilizing them for 10 minutes, a luminescence was measured."}}, "data": [{"smiles": "NC(=O)c1ncn([C@@H]2O[C@H](CO)[C@@H](O)[C@H]2O)c1N", "note": "[AICAR, AICA-riboside]", "values": [{"measurement": "expression of p-AMPK protein", "setting": "AMPK", "result": "increased twice or more"}, {"measurement": "amount of p-ACC protein expression", "setting": "ACC; AICAR 1 mM, chito-oligosaccharide concentration not specified", "result": "up to twice"}, {"measurement": "total amount of ACC protein expression", "setting": "ACC; western blot", "result": "not changed"}, {"measurement": "increased oxidation of fatty acid", "setting": "liver cells (HepG2) [1]", "result": "about 35%"}, {"measurement": "production of ATP", "setting": "liver cells (HepG2) [2]", "result": "up to twice"}]}]}
